Measured values published in ChEMBL document CHEMBL5137032, “Design, synthesis of DNA-interactive 4-thiazolidinone-based indolo-/pyrroloazepinone conjugates as potential cytotoxic and topoisomerase I inhibitors” (Eur J Med Chem, 2022).
Activity calls are given as the source filed them. The rule behind the calls is not given here.

Columns and labels:
A549 [1] = assay: Induction of apoptosis in human A549 cells assessed as apoptotic body fragmentation at 0.625 to 2.5 uM incubated for 48 hrs by AO/EB staining based fluorescence microscopy; format: functional, cell-based; conditions: dose 0.625-2.5 µM, DDE = dose-dependent effect
Calf thymus DNA [2] = assay: Binding affinity to calf thymus DNA assessed as increase in viscosity at 15 uM by ethidium bromide-Hoechst 33342 staining based analysis; format: nucleic-acid assay; conditions: Bos taurus
SK-MEL-28 = assay: Cytotoxicity against human SK-MEL-28 cells assessed as cell growth inhibition incubated for 48 hrs by MTT assay; format: functional, cell-based; conditions: SK-MEL-28, 48 h
Calf thymus DNA [3] = assay: Binding affinity to calf thymus DNA assessed as hyperchromicity at 10 uM by circular dichroism spectroscopy; format: nucleic-acid assay; conditions: Bos taurus
A549 [4] = assay: Cytotoxicity against human A549 cells assessed as cell growth inhibition incubated for 48 hrs by MTT assay; format: functional, cell-based; conditions: A549, 48 h
A549 [5] = assay: Induction of intracellular ROS generation in human A549 cells at 0.625 to 2.5 uM incubated for 48 hrs by […] fluorescence microscopic analysis; format: functional, cell-based; conditions: dose 0.625-2.5 µM, DDE = dose-dependent effect
[6] = Cytotoxicity against rat NRK cells assessed as cell growth inhibition incubated for 48 hrs by MTT assay; format: toxicity, cell-based
A549 [7] = assay: Anti-migration activity in human A549 cells assessed as distance travelled at 0.625 uM by wound healing assay based phase contrast microscopy; format: functional
A549 [8] = assay: Anti-migration activity in human A549 cells assessed as distance travelled at 2.5 uM by wound healing assay based phase contrast microscopy; format: functional
A549 [9] = assay: Inhibition of colony formation in human A549 cells assessed as decrease in colonies at 0.625 to 2.5 uM incubated for 7 days by crystal violet staining based assay; format: functional, cell-based; conditions: dose 0.625-2.5 µM, time 7.0 day, DDE = dose-dependent effect
A549 [10] = assay: Induction of apoptosis in human A549 cells assessed as necrotic cells at 0.625 to 2.5 uM incubated for 48 hrs by Annexin V-FITC/propidium iodide staining based flow cytometric analysis; format: functional; conditions: dose 0.625-2.5 µM
A549 [11] = assay: Induction of apoptosis in human A549 cells assessed as reduction on viable cells at 0.625 to 2.5 uM incubated for 48 hrs by phase contrast microscopy; format: functional, cell-based; conditions: dose 0.625-2.5 µM, DDE = dose-dependent effect
DNA topoisomerase 1 = biological target: T1, DNA topoisomerase 1 (Homo sapiens, UniProt P11387); assay: Inhibition of human DNA topoisomerase 1 assessed as reduction in pBR322 DNA relaxation incubated for 1 hrs measured by agarose gel electrophoresis method
T1 sequence (P11387 whole entry): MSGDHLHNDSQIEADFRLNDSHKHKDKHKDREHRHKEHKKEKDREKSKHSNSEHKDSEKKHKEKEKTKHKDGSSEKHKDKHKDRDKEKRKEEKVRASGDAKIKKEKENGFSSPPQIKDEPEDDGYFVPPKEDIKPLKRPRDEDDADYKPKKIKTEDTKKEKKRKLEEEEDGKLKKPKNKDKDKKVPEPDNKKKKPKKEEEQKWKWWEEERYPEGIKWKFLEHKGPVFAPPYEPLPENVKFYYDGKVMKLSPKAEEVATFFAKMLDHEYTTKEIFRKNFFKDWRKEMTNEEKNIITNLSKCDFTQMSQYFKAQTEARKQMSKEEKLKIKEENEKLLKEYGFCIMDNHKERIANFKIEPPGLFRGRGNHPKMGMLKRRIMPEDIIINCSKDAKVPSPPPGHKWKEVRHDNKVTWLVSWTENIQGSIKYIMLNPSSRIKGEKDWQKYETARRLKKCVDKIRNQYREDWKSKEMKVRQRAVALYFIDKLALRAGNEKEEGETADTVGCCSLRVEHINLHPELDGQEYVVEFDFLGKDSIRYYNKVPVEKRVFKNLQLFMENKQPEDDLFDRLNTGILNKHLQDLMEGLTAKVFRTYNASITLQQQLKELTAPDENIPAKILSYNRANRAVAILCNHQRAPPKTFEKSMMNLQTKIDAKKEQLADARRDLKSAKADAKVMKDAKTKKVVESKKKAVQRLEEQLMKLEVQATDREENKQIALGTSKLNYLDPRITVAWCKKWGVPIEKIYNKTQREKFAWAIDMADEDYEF

A549 [12] = assay: Induction of apoptosis in human A549 cells assessed as late apoptotic cells at 2.5 uM incubated for 48 hrs by Annexin V-FITC/propidium iodide staining based flow cytometric analysis; format: functional
A549 [13] = assay: Induction of apoptosis in human A549 cells assessed as chromatin condensation at 0.625 to 2.5 uM incubated for 48 hrs by AO/EB staining based fluorescence microscopy; format: functional, cell-based; conditions: dose 0.625-2.5 µM, DDE = dose-dependent effect
A549 [14] = assay: Induction of apoptosis in human A549 cells assessed as late apoptotic cells at 0.625 to 1.25 uM incubated for 48 hrs by Annexin V-FITC/propidium iodide staining based flow cytometric analysis; format: functional, cell-based; conditions: dose 0.625-1.25 µM
A549 [15] = assay: Induction of apoptosis in human A549 cells assessed as chromatin condensation at 0.625 to 2.5 uM incubated for 48 hrs by DAPI staining based fluorescence microscopic analysis; format: functional, cell-based; conditions: dose 0.625-2.5 µM
MCF7 = assay: Cytotoxicity against human MCF7 cells assessed as cell growth inhibition incubated for 48 hrs by MTT assay; format: functional, cell-based; conditions: MCF7, 48 h
A549 [16] = assay: Induction of apoptosis in human A549 cells assessed as nuclear fragmentation at 0.625 to 2.5 uM incubated for 48 hrs by DAPI staining based fluorescence microscopic analysis; format: functional, cell-based; conditions: dose 0.625-2.5 µM
A549 [17] = assay: Induction of apoptosis in human A549 cells assessed as necrotic cells at 2.5 uM incubated for 48 hrs by Annexin V-FITC/propidium iodide staining based flow cytometric analysis; format: functional
A549 [18] = assay: Anti-migration activity in human A549 cells assessed as distance travelled at 1.25 uM by wound healing assay based phase contrast microscopy; format: functional
HT-29 = assay: Cytotoxicity against human HT-29 cells assessed as cell growth inhibition incubated for 48 hrs by MTT assay; format: functional, cell-based; conditions: HT-29, 48 h
[19] = biological target: DNA topoisomerase 2-alpha (Homo sapiens) (UniProt P11388); assay: Inhibition of DNA topoisomerase 2 (unknown origin) assessed as reduction in decatenation using kDNA as substrate incubated for 30 mins measured by agarose gel electrophoresis method
DNA topoisomerase 2-alpha (Homo sapiens), sequence (P11388 whole entry): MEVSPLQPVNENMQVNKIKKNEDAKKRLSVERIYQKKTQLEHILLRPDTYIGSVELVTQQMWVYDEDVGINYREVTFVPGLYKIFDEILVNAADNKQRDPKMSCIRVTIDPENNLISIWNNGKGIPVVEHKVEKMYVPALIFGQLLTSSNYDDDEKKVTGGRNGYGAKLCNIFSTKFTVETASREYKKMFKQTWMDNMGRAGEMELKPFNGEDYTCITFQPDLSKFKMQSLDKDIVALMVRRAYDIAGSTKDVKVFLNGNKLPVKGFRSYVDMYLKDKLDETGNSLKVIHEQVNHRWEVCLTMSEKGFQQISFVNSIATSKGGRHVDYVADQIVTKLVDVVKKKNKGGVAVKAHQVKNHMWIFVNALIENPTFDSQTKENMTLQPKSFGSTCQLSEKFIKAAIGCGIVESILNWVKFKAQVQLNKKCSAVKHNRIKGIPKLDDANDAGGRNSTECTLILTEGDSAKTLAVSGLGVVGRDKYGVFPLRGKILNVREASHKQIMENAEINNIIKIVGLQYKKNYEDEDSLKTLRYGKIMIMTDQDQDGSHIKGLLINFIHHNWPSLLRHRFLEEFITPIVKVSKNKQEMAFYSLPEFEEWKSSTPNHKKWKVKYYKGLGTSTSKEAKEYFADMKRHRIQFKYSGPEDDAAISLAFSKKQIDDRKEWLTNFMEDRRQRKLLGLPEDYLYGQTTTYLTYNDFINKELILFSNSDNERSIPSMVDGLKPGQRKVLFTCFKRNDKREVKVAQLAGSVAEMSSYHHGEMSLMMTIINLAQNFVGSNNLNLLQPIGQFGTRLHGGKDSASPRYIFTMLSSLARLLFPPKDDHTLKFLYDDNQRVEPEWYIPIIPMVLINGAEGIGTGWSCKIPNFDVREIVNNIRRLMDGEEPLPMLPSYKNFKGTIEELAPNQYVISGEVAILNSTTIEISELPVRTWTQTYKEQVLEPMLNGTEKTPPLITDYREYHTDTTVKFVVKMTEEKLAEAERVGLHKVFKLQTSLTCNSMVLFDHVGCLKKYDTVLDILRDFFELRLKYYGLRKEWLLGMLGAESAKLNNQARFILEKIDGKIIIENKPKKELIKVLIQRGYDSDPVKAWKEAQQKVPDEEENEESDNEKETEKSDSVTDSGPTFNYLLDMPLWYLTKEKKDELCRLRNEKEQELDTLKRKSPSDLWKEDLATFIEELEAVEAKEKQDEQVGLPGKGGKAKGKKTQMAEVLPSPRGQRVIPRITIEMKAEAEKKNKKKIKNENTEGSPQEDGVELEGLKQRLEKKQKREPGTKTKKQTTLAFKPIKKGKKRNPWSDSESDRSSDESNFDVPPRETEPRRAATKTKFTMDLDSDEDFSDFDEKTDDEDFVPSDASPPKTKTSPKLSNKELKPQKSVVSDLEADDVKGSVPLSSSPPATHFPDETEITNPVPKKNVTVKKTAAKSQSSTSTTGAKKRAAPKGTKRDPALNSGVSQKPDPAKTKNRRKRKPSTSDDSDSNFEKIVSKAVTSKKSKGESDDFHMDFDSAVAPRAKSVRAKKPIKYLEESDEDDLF

Calf thymus DNA [20] = assay: Binding affinity to calf thymus DNA assessed as hyperchromicity at 10 to 20 uM by UV-Vis spectroscopic analysis; format: nucleic-acid assay; conditions: Bos taurus; dose 10-20 µM
A549 [21] = assay: Induction of apoptosis in human A549 cells assessed as cell shrinkage at 0.625 to 2.5 uM incubated for 48 hrs by phase contrast microscopy; format: functional, cell-based; conditions: dose 0.625-2.5 µM, DDE = dose-dependent effect
A549 [22] = assay: Induction of apoptosis in human A549 cells assessed as changes in nuclear morphology at 0.625 to 2.5 uM incubated for 48 hrs by DAPI staining based fluorescence microscopic analysis; format: functional, cell-based; conditions: dose 0.625-2.5 µM
A549 [23] = assay: Anti-migration activity in human A549 cells assessed as distance travelled at 0.625 uM incubated for 48 hrs by wound healing assay based phase contrast microscopy; format: functional
[24] = biological target: T2, DNA topoisomerase 1 (Homo sapiens) (UniProt P11387); assay: Inhibition of DNA topoisomerase 1 (unknown origin) assessed as reduction in pBR322 DNA relaxation at 10 uM incubated for 30 mins measured by agarose gel electrophoresis method relative to control
T2 sequence (whole entry): T1 sequence (P11387 whole entry)

A549 [25] = assay: Anti-migration activity in human A549 cells assessed as distance travelled at 1.25 uM incubated for 48 hrs by wound healing assay based phase contrast microscopy; format: functional
A549 [26] = assay: Induction of apoptosis in human A549 cells assessed as cell membrane disruption at 0.625 to 2.5 uM incubated for 48 hrs by phase contrast microscopy; format: functional, cell-based; conditions: dose 0.625-2.5 µM, DDE = dose-dependent effect
A549 [27] = assay: Induction of apoptosis in human A549 cells assessed as necrotic cells at 0.625 uM incubated for 48 hrs by Annexin V-FITC/propidium iodide staining based flow cytometric analysis; format: functional
A549 [28] = assay: Induction of apoptosis in human A549 cells assessed as changes in cell morphology at 0.625 to 2.5 uM incubated for 48 hrs by phase contrast microscopy; format: functional, cell-based; conditions: dose 0.625-2.5 µM
A549 [29] = assay: Anti-migration activity in human A549 cells assessed as distance travelled at 2.5 uM incubated for 48 hrs by wound healing assay based phase contrast microscopy; format: functional
A549 [30] = assay: Induction of apoptosis in human A549 cells assessed as membrane blebbing at 0.625 to 2.5 uM incubated for 48 hrs by AO/EB staining based fluorescence microscopy; format: functional, cell-based; conditions: dose 0.625-2.5 µM, DDE = dose-dependent effect
A549 [31] = assay: Inhibition of cell migration in human A549 cells at 0.625 to 2.5 uM incubated for 48 hrs by wound healing assay based phase contrast microscopy; format: functional; conditions: dose 0.625-2.5 µM, DDE = dose-dependent effect
A549 [32] = assay: Induction of apoptosis in human A549 cells assessed as cell shrinkage at 0.625 to 2.5 uM incubated for 48 hrs by AO/EB staining based fluorescence microscopy; format: functional; conditions: dose 0.625-2.5 µM, DDE = dose-dependent effect
HCT-116 = assay: Cytotoxicity against human HCT-116 cells assessed as cell growth inhibition incubated for 48 hrs by MTT assay; format: functional, cell-based; conditions: HCT-116, 48 h

With `Cc1ccc(C/N=C2\NC(=O)/C(=C3\CCNC(=O)c4[nH]c5ccccc5c43)S2)cc1` the Activity (A549 [1]) was “Dde”, the Activity (Calf thymus DNA [2]) was “Active” and the IC50 (SK-MEL-28) was 3.02 µM. The Activity (Calf thymus DNA [3]) was “Active”, the IC50 (A549 [4]) was 1.24 µM and the Activity (A549 [5]) was “Dde”. It also gave an IC50 at 48 h [6] of 53.2 µM, an Activity (A549 [7]) of 298.42 um and an Activity (A549 [8]) of 363.56 um. The inhibition (A549 [9]) was “Dde”, the Activity (A549 [10]) was 2.97% and the Activity (A549 [11]) was “Dde”. The IC50 (DNA topoisomerase 1) was 48 µM, the Activity (A549 [12]) was 3.09% and the Activity (A549 [13]) was “Dde”. The Activity (A549 [14]) was “Active”, the Activity (A549 [15]) was “Active” and the IC50 (MCF7) was 8.03 µM. The Activity (A549 [16]) was “Active”, the Activity (A549 [17]) was 5.96% and the Activity (A549 [18]) was 391.93 um. The IC50 (HT-29) was 10.9 µM, the inhibition [19] was “Active” and the Activity (Calf thymus DNA [20]) was “Active”. For the same compound, the Activity (A549 [21]) was “Dde”, the Activity (A549 [22]) was “Active” and the Activity (A549 [23]) was 259.59 um. For the same compound, the inhibition [24] was 28%, the Activity (A549 [25]) was 293.25 um and the Activity (A549 [26]) was “Dde”. For the same compound, the Activity (A549 [27]) was 4.8%, the Activity (A549 [28]) was “Active” and the Activity (A549 [29]) was 445.52 um. The Activity (A549 [30]) was “Dde”, the inhibition (A549 [31]) was “Dde” and the Activity (A549 [32]) was “Dde”. For the same compound, the IC50 (HCT-116) was 6.55 µM.
